In data set [1] the test system is Mus musculus. Briefly: Antidepressant activity in BALB/c mouse assessed as decrease in duration of immobility at 10 mg/kg, ip pretreated 30 mins before test by forced swimming test. The format is functional, organism-based. More on the design: dose 10 mg/kg.
The target in data set [2] is T1, Sodium-dependent dopamine transporter (Homo sapiens, UniProt Q01959). Briefly: Inhibition of [3H]dopamine reuptake at human DAT expressed in HEK cells. In kind it is cell-based, HEK293.
T1 sequence (Q01959 whole entry): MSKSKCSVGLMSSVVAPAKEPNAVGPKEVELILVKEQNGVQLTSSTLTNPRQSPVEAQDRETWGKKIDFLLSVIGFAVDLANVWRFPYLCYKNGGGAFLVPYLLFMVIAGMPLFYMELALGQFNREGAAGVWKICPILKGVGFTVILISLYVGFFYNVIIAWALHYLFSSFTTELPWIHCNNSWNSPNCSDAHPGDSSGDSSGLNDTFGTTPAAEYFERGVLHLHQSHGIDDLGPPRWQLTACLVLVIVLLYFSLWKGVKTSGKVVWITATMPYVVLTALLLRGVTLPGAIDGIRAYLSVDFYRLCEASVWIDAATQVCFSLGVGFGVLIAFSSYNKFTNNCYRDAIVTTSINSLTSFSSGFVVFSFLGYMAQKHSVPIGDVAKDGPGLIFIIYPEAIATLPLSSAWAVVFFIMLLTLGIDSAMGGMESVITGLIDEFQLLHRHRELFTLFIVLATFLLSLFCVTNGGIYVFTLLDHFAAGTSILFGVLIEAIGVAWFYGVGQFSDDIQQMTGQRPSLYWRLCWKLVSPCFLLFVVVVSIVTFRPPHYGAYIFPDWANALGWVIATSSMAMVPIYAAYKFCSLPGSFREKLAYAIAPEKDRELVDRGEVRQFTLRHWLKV
For data set [3], the target named is T1, Sodium-dependent dopamine transporter. As to the kind of experiment: biochemical. The format is cell-based, HEK293.
Description: Displacement of [125I]RTI55 from human DAT expressed in HEK cells
Data set [4] concerns the target T2, Sodium-dependent noradrenaline transporter (Homo sapiens, UniProt P23975). As to the kind of experiment: Inhibition of [3H]norepinephrine reuptake at human NET expressed in HEK cells. The format is cell-based, HEK293.
Data set [5] has as its target T3, Sodium-dependent serotonin transporter (Homo sapiens, UniProt P31645). As to the kind of experiment: Inhibition of [3H]serotonin reuptake at human SERT expressed in HEK cells. The format is cell-based, HEK293.
Data set [6] deals with T3, Sodium-dependent serotonin transporter. As to the kind of experiment: biochemical. The format is cell-based, HEK293.
Description: Displacement of [125I]RTI55 from human SERT expressed in HEK cells
The target of data set [7] is T2, Sodium-dependent noradrenaline transporter. Briefly: biochemical. The format is cell-based, HEK293.
Description: Displacement of [125I]RTI55 from human NET expressed in HEK cells
Data set [8] relates to Mus musculus. Briefly: Antidepressant activity in BALB/c mouse assessed as change in duration of immobility at 20 mg/kg, ip pretreated 30 mins before test by forced swimming test. More on the design: dose 20 mg/kg. In kind it is functional, organism-based.
Data set [9] can be described thus: Metabolic stability assessed as half life in mouse liver microsomes. The format is ADME, Microsome.
The nature of data set [10]: Metabolic stability assessed as half life in rat liver microsomes. In kind it is ADME, Microsome.
Data set [11] deals with Mus musculus. As to the kind of experiment: Antidepressant activity in ICR mouse assessed as change in duration of immobility at 10 mg/kg, ip pretreated 30 mins before test by forced swimming test. More on the design: dose 10 mg/kg. The format is functional, organism-based.

Active and inactive are the calls of the source. No cut-off for these calls is given here. Bounds are passed on as bounds.

The results in this text go back to ChEMBL document CHEMBL1152751, “2,5-Disubstituted tetrahydrofurans as selective serotonin re-uptake inhibitors” (Bioorg Med Chem, 2009).

T3 sequence (P31645 whole entry): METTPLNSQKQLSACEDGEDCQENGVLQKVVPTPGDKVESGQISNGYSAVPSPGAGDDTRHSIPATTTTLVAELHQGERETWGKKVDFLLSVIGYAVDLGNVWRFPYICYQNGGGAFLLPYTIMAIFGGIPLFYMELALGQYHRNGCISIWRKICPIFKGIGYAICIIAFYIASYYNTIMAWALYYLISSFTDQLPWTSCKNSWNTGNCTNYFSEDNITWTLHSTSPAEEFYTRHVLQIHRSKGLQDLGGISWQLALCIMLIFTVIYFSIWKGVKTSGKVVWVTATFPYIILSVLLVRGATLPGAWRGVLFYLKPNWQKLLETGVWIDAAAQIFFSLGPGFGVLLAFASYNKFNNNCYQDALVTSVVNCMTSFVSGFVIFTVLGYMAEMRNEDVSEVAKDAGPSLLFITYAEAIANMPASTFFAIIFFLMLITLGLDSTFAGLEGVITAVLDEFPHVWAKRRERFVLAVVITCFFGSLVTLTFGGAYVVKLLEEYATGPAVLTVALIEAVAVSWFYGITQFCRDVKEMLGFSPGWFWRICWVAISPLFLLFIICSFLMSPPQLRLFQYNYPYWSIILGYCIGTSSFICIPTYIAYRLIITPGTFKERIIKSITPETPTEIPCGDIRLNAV
T2 sequence (P23975 whole entry): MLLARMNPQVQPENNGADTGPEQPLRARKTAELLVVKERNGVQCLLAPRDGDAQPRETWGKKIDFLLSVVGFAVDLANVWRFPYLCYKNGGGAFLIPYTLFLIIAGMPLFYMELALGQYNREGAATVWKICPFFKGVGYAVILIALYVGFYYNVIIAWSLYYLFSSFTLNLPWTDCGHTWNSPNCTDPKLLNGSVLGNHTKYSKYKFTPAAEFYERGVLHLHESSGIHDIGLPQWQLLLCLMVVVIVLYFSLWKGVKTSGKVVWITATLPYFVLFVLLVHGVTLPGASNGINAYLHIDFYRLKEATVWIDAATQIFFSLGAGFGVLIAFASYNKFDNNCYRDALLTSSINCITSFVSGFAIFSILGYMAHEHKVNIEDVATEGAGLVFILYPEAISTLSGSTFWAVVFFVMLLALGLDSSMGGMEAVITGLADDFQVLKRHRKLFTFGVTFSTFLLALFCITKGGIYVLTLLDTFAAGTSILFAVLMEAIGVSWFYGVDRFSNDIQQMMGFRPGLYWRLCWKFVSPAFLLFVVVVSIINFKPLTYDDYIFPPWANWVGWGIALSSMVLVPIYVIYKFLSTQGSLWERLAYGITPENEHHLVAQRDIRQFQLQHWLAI

Turning to `COc1ccc(F)cc1CCCC1CCC(CCN)O1` (mixture of isomers), the result with Mus musculus [1] was inactive.
In data set [2], `COc1ccc(F)cc1[C@@H]1CC[C@H](CCN)O1` (relative stereo) showed an IC50 of more than 10 µM. Moreover, the Ki in data set [3] is more than 10 µM.
As for `COc1ccc(F)cc1[C@H]1CC[C@H](CN)O1` (relative stereo), in [2], the IC50 is more than 10 µM. In addition, in [3], the Ki is more than 10 µM.
Turning to `NCCC1CCC(c2ccco2)O1` (configuration not stated), the IC50 was more than 10000 nM in data set [4], more than 10000 nM in data set [5] and more than 10 µM in data set [2]. Besides, the Ki in data set [6] was more than 10000 nM; in [7], more than 10 µM; in data set [3], more than 10 µM.
`COc1ccc(F)cc1C[C@@H]1CC[C@H](CN)O1` (relative stereo) registered an IC50 in [2] of 18.7 µM.
Regarding `NCC1CCC(c2ccc3ccccc3c2)O1` (configuration not stated), the IC50 in [5] is 4 nM. The inhibition constant Ki in data set [7] is more than 10 µM.
Turning to `NCC1CCC(CCc2cccc3ccccc23)O1` (configuration not stated), the Ki in [6] is 18 nM; in data set [7] it was more than 10 µM; in [3], more than 10 µM. Also, the IC50 in data set [2] was more than 10 µM.
For `COc1ccc(F)cc1CCCC[C@H]1CC[C@H](CN)O1` (relative stereo), the values for the IC50 in [5] and in [2] were 84 nM and 16.5 µM, respectively. For the same compound, the values for the inhibitory constant (Ki) in [6] and in data set [3] were 4 nM and 3.87 µM, respectively.
In data set [3], `COc1ccc(C2CCC(CN)O2)cc1` (configuration not stated) had an inhibition constant Ki of more than 10 µM.
As for `COc1ccc(F)cc1[C@H]1CC[C@H](CCN)O1`, in data set [2], the IC50 is more than 10 µM. This compound registered an inhibition constant Ki in [3] of 32.9 µM.
On to `NCC1CCC(CCc2cccnc2)O1` (configuration not stated), for which the IC50 in data set [4] is more than 10000 nM; in data set [5], 2720 nM; in data set [2] it was more than 10 µM. The same compound gave a Ki in [3] of more than 10 µM.
For the compound `CNCCC(Oc1ccc(C(F)(F)F)cc1)c1ccccc1` (configuration not stated), the result in the data set on Mus musculus [1] was Active. In the data set with Mus musculus [8], the outcome was inactive.
Regarding `COc1ccc(F)cc1C[C@H]1CC[C@H](CN)O1` (relative stereo), the IC50 in data set [2] was 28.9 µM.
`COc1ccc(F)cc1C1CCC(CN)O1` (configuration not stated) had an IC50 in data set [2] of more than 10 µM.
With `NCCC1CCC(Cc2ccccc2)O1` (configuration not stated), the Ki in [7] and in data set [3] was more than 10 µM each time.
With `CNCCC1CCC(CCc2cc(F)ccc2OC)O1` (configuration not stated), the half-life in [9] turned out to be 58.5 min; in data set [10], 129 min.
As for `COc1ccc(F)cc1CCC[C@H]1CC[C@H](CN)O1` (relative stereo), the 50% inhibitory concentration (IC50) in [5] came out at 2.1 nM; in [2] it was 7.62 µM. Also, the Ki in data set [6] amounted to 0.8 nM.
Turning to `COc1ccc2ccccc2c1CCC1CCC(CCN)O1` (configuration not stated), the Ki in [7] and in [3] was more than 10 µM throughout.
As for `CC(C)(C)c1ccc(C2CCC(CN)O2)cc1` (configuration not stated), the Ki in [6] is more than 10000 nM; in data set [3] it was more than 10 µM.
For `COc1ccc(F)cc1CCC[C@@H]1CC[C@H](CN)O1` (relative stereo), the results for the IC50 in [5] and in data set [2] were 2.6 nM and 6.29 µM, respectively. Also, the inhibition constant Ki in data set [6] is 2.8 nM; in data set [3], 4.58 µM.
Take `COc1ccc(F)cc1CC[C@H]1CC[C@H](CN)O1`: the Ki in data set [3] stood at 14.5 µM.
In turn, `NCC1CCC(c2ccc(Br)cc2)O1` (configuration not stated) returned an inhibition constant (Ki) in data set [7] of more than 10 µM.
Regarding `COc1ccc(CCC2CCC(CCN)O2)c2ccccc12` (configuration not stated), the Ki in data set [7] and in data set [3] was more than 10 µM throughout.
Consider `NCC1CCC(CCc2c(F)c(F)c(F)c(F)c2F)O1` (configuration not stated), for which the Ki in data set [3] is more than 10 µM.
`COc1ccc(F)cc1CCC1CCC(CCN)O1` (configuration not stated): the half-life in data set [9] is 56 min. Besides, the outcome with Mus musculus [11] was inactive.
With `COc1ccc(F)cc1C[C@H]1CC[C@H](CCN)O1` (relative stereo), the IC50 in data set [4] worked out at 1770 nM.
For `COc1ccc(F)cc1C[C@@H]1CC[C@H](CCN)O1` (relative stereo), in data set [4], the IC50 came to 1860 nM.
